Columns and labels:
11β-HSD1 [1] = biological target: T1, 11β-HSD1 (Homo sapiens, UniProt P28845); experiment: 11β-HSD1 dehydrogenase activity (oxidation of cortisol) in lysates of HEK-293 cells expressing recombinant enzyme, competition by 7-oxygenated neurosteroids; format: biochemical; details: HEK-293 lysates; 50 nM [3H]-cortisol, 500 µM cofactor NAD+; mean±S.D., four experiments
T1 construct: expressed in transfected cells; host or cells: HEK-293 (transient, Ca2+-phosphate precipitation)
Description: (§1) HEK-293 cells were cultured in Dulbecco's Modified Eagle's Medium (DMEM) supplemented with 10% fetal calf serum (FCS), 50 units/ml penicillin, 50 µg/ml streptomycin and 2 mM glutamine. Cells were transfected with expression plasmids for FLAG-tagged 11β-HSD1 and myc-tagged H6PDH or pcDNA3.1 control using the Ca^2+-phosphate precipitation method. The epitope tags had no effect on enzymatic activities or expression levels of 11β-HSD1 and H6PDH [10], [49]. A total amount of 8 µg DNA was used per 10 cm culture dish or 2 µg DNA per well of a six-well culture plate.
(§2) The enzyme activity in intact cells was measured as described. Briefly, HEK-293 cells, grown in 10 cm culture dishes and transfected with FLAG-tagged 11β-HSD1 alone or co-transfected with myc-tagged H6PDH, were detached 24 h post-transfection and distributed in 96-well plates at a density of 30′000–40′000 cells per well. After 16 h, cells were incubated in serum- and steroid-free medium and the conversion of radiolabeled cortisone to cortisol (or the reverse activity) was determined upon incubation for 1 h at 37°C in a total volume of 50 µl containing 200 nM cortisone (or cortisol). The reaction was stopped by adding methanol containing 2 mM unlabeled cortisone and cortisol, followed by separation of steroids by TLC and scintillation counting. Measurements with freshly prepared cell lysates were carried out in the presence of [1,2,6,7-^3H]-cortisone and cofactor NADPH at final concentrations of 200 nM and 500 µM for the reductase reaction and with 50 nM [1,2,6,7-^3H]-cortisol and 500 µM cofactor NAD^+ for the dehydrogenase reaction, respectively, in the absence or presence of various concentrations of competing 7-oxygenated neurosteroid ligands. The concentration of dimethylsulfoxide or methanol from the solvent was 0.1% in all reactions and had no effect on enzyme activity. Data (mean±SD) were obtained from four independent experiments and were calculated using the Data Analysis Toolbox (Elsevier MDL, Allschwil, Switzerland).

11β-HSD1 [2] = biological target: T1, 11β-HSD1; experiment: 11β-HSD1 reductase activity (reduction of cortisone) in lysates of HEK-293 cells expressing recombinant enzyme, competition by 7-oxygenated neurosteroids; format: biochemical; details: HEK-293 lysates; 200 nM [3H]-cortisone, 500 µM NADPH; mean±S.D., four experiments
Description: as §1, §2

11β-HSD1 [3] = biological target: T1, 11β-HSD1; experiment: Steady state ratio of cortisone to cortisol in intact HEK-293 cells expressing 11β-HSD1; format: cell-based; details: 16 h, 20 µM inhibitor
Description: as §1, §2

11β-HSD1/H6PDH = biological target: T2, 11β-HSD1/H6PDH (Homo sapiens, UniProt P28845); experiment: Steady state ratio of cortisone to cortisol in intact HEK-293 cells coexpressing 11β-HSD1 and H6PDH; format: cell-based; details: 11β-HSD1/H6PDH cells, 16 h, 20 µM inhibitor, n = 4
T2 construct: expressed in transfected cells; host or cells: HEK-293 (transient co-transfection, Ca2+-phosphate precipitation)
Description: as §1
as §2, with “After 16 h, cells were incubated in serum- and steroid-free medium and the conversion of radiolabeled cortisone to cortisol (or the reverse activity) was determined upon incubation for 1 h at 37°C in a total volume of 50 µl containing 200 nM cortisone (or cortisol).” left out

11β-HSD1 [4] = biological target: T1, 11β-HSD1; experiment: 7-keto-steroid reductase and 7-hydroxy-steroid dehydrogenase activity in intact transfected HEK-293 cells (GC-MS); format: cell-based; details: 1 µM inhibitor, intact HEK-293 cells
Description: as §1
HEK-293 cells were seeded in six-well plates at a density of 900′000 cells per well. After 24 h, cells were transfected with expression vector for 11β-HSD1 or co-transfected with vectors for 11β-HSD1 and H6PDH. An empty pcDNA3.1 plasmid was used in transfections lacking H6PDH to adjust total DNA amounts in all samples. The medium was replaced 18 h post-transfection by steroid-free medium followed by addition of 1 µM of the steroid substrate to be tested. […] After incubation for various time intervals, reactions were terminated by addition of an equal volume of dichloromethane, containing 500 ng medroxyprogesterone as an internal standard. Since radiolabeled C7-oxygenated metabolites were not commercially available, we applied GC-MS for detection. […]

[5] = 11β-HSD1 cells, 200 nM radiolabeled cortisone, n = 4

T2 sequence (P28845 whole entry): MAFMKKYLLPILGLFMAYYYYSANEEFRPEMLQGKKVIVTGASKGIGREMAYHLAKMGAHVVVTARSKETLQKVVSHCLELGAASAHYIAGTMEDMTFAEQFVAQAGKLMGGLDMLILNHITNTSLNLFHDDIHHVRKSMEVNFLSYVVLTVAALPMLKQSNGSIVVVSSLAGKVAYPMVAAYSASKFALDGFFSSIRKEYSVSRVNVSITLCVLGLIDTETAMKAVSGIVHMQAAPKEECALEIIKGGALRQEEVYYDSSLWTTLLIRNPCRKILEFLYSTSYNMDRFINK
T1 sequence (P28845 whole entry): as above

Structure (SMILES)	IC50 (11β-HSD1 [1]) [µM]	IC50 (11β-HSD1 [2]) [µM]	further results
C[C@]12CC[C@H](O)CC1=CC(=O)[C@@H]1[C@@H]2CC[C@]2(C)C(=O)CC[C@@H]12 [7-ketodehydroepiandrosterone]	29 ± 5	0.82 ± 0.07	–
C[C@]12CC[C@H](O)CC1=C[C@H](O)[C@@H]1[C@@H]2CC[C@]2(C)C(=O)CC[C@@H]12 [7β-hydroxydehydroepiandrosterone]	0.54 ± 0.05	7.7 ± 0.8	–
O=C1CC(c2ccccc2)Oc2ccccc21 (stereo not shown) [Flavanone, flavanone]	–	–	cortisol, percentage of total glucocorticoid (oxidation of cortisol to cortisone) (11β-HSD1 [3]; 11β-HSD1 cells, 200 nM radiolabeled cortisol, n = 4): 61.2%; cortisol, percentage of total glucocorticoid (reduction of cortisone to cortisol) (11β-HSD1 [3]; [5]): 74.1%; cortisone, percentage of total glucocorticoid (reduction of cortisone to cortisol) (11β-HSD1 [3]; [5]): 25.9%; effect of inhibitor on the steady state ratio of glucocorticoids (11β-HSD1 [3]; HEK-293 cells with 11β-HSD1 alone or with H6PDH): little or no effect on the steady state ratio of glucocorticoids; cortisol, percentage of total glucocorticoid (oxidation of cortisol to cortisone) (11β-HSD1/H6PDH; 200 nM radiolabeled cortisol): 90.9%; cortisone, percentage of total glucocorticoid (oxidation of cortisol to cortisone) (11β-HSD1/H6PDH; 200 nM radiolabeled cortisol): 9.1%; cortisol, percentage of total glucocorticoid (reduction of cortisone to cortisol) (11β-HSD1/H6PDH; 200 nM radiolabeled cortisone): 91.7%; cortisone, percentage of total glucocorticoid (reduction of cortisone to cortisol) (11β-HSD1/H6PDH; 200 nM radiolabeled cortisone): 8.3%
C1CCc2nnc(C34CC5CC(CC(C5)C3)C4)n2CC1 [T0504, 5H-1,2,4-triazolo(4,3-a)azepine,6,7,8,9-tetrahydro-3-tricyclo(3·3·1·13·7)dec-1-yl]	–	–	effect of inhibitor on 11β-HSD1-dependent metabolism of 7α-hydroxy-DHEA (11β-HSD1 [4]; 1 µM 7α-hydroxy-DHEA substrate, 3 h): prevented the formation of 7β-hydroxy-DHEA and 7-keto-DHEA; effect of inhibitor on 11β-HSD1-dependent metabolism of 7-ketopregnenolone and 5α-androstane-3β-ol-7,17-dione (11β-HSD1 [4]; 1 µM substrate, 3 h or 6 h): almost completely abolished
C[C@]12CC[C@H](O)CC1=C[C@@H](O)[C@@H]1[C@@H]2CC[C@]2(C)C(=O)CC[C@@H]12 [7α-hydroxydehydroepiandrosterone]	16 ± 1	45 ± 2	–
C[C@]12CC[C@H](O)C[C@@H]1CC(=O)[C@@H]1[C@@H]2CC[C@]2(C)C(=O)CC[C@@H]12 [5α-androstane-3β-ol-7,17dione, 5α-androstane-3β-ol-7,17-dione]	18 ± 1	0.5 ± 0.11	–
CC(=O)[C@H]1CC[C@H]2[C@@H]3C(=O)C=C4C[C@@H](O)CC[C@]4(C)[C@H]3CC[C@]12C [7-ketopregnenolone]	5.4 ± 0.5	0.68 ± 0.11	–
CC(=O)[C@H]1CC[C@H]2[C@@H]3[C@@H](O)C=C4C[C@@H](O)CC[C@]4(C)[C@H]3CC[C@]12C [7β-hydroxypregnenolone]	1.34 ± 0.49	2.4 ± 0.5	–
